Structures can show the parent of a compound that is named as a salt. ± gives the standard deviation of the averaged measurements.
System: Candida albicans SNY425 biofilm
Experiment: biofilm OD600 relative to DMSO control (fraction of DMSO control); higher = more biofilm (less inhibition)
Protocol: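 C. albicans SNY425 biofilm optical density assays (OD600 of the adhered biofilm after media removal) in RPMI-MOPS pH 7.0 at 37 °C with shaking. Groups of 4 to 8 wells per compound are averaged and normalised to the average of DMSO loading control wells. Adherence inhibition was tested at 10 and 40 µM, sustained inhibition and disruption at 40 µM, and the MBIC series at 200 to 0.78 µM.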

[1] = 10 µM, assay detail: adherence inhibition, 96-well, compound during 90 min adherence only
[2] = 40 µM, assay detail: adherence inhibition, 96-well, compound during 90 min adherence only
[3] = 40 µM, assay detail: disruption, 384-well, compound added to 24 h mature biofilm for further 24 h
[4] = 40 µM, assay detail: sustained inhibition, 384-well, compound during adherence and 24 h growth
[5] = 0.78 µM, assay detail: sustained inhibition (MBIC series), 384-well, compound during adherence and 24 h growth
[6] = 3.125 µM, assay detail: sustained inhibition (MBIC series), 384-well, compound during adherence and 24 h growth
[7] = 12.5 µM, assay detail: sustained inhibition (MBIC series), 384-well, compound during adherence and 24 h growth
[8] = 50 µM, assay detail: sustained inhibition (MBIC series), 384-well, compound during adherence and 24 h growth
[9] = 200 µM, assay detail: sustained inhibition (MBIC series), 384-well, compound during adherence and 24 h growth

Row | SMILES | biofilm OD600 [1] | biofilm OD600 [2] | biofilm OD600 [3] | biofilm OD600 [4] | biofilm OD600 [5] | biofilm OD600 [6] | biofilm OD600 [7] | biofilm OD600 [8] | biofilm OD600 [9]
1 | Oc1ncnc2[nH]ncc12 [Allopurinol] | 0.938 | 0.887 | 1.02 ± 0.07 | 0.982 ± 0.038 | – | – | – | – | –
2 | CNCCCC1c2ccccc2C=Cc2ccccc21 [Protriptyline hydrochloride] | 1.05 | 0.899 | 1.01 ± 0.012 | 1.02 ± 0.022 | – | – | – | – | –
3 | Nc1ccc(S(=O)(=O)Nc2ccnn2-c2ccccc2)cc1 [Sulfaphenazole] | 0.962 | 0.934 | 1.01 ± 0.017 | 1.01 ± 0.03 | – | – | – | – | –
4 | Cc1cnc(C(=O)O)c[n+]1[O-] [acipimox] | 0.823 | 0.56 | 0.997 ± 0.034 | 0.992 ± 0.029 | – | – | – | – | –
5 | C[C@@H]1CC[C@H]2[C@@H](C)C(=O)O[C@@H]3O[C@@]4(C)CC[C@@H]1[C@]32OO4 [artemisinin] | 1.14 | 0.966 | 0.955 ± 0.017 | 0.838 ± 0.019 | 1.09 | 1.06 | 1.01 | 0.893 | 0.744
6 | O=C([O-])C(O)[C@H](O)[C@@H](O)[C@H](O)[C@H](O)CO.O=C([O-])C(O)[C@H](O)[C@@H](O)[C@H](O)[C@H](O)CO.[Ca+2] (stereo partly specified) [calcium gluceptate] | 0.997 | 0.955 | 0.941 ± 0.037 | 0.955 ± 0.022 | 0.996 | 1.09 | 1.02 | 1.02 | 0.823
7 | N[C@@H](C(=O)N[C@@H]1C(=O)N2C(C(=O)O)=C(Cl)CS[C@H]12)c1ccccc1 [cefaclor] | 1.07 | 0.896 | 1.03 ± 0.028 | 0.983 ± 0.032 | – | – | – | – | –
8 | Oc1c(Cl)cc(Cl)c2cccnc12 [chloroxine] | 0.788 | 0.373 | 0.907 ± 0.031 | 0.28 ± 0.019 | 1.03 | 1.03 | 0.926 | 0.333 | 0.268
9 | CN(C)CCC(c1ccc(Cl)cc1)c1ccccn1 (stereo unspecified) [chlorpheniramine maleate] | 1.02 | 0.894 | 1 ± 0.044 | 1.01 ± 0.026 | – | – | – | – | –
10 | N[C@H](Cc1ccccc1)C(=O)O [d-phenylalanine] | 1 | 1.01 | 0.973 ± 0.034 | 0.994 ± 0.06 | – | – | – | – | –
11 | CCCCCCOC(=O)NC(=N)c1ccc(NCc2nc3cc(C(=O)N(CCC(=O)OCC)c4ccccn4)ccc3n2C)cc1 [dabigatran etexilate mesylate] | 1.05 | 0.776 | 0.971 ± 0.031 | 0.894 ± 0.046 | 0.9 | 0.9 | 0.92 | 0.843 | 0.628
12 | NC(=O)C(c1ccccc1)(c1ccccc1)[C@@H]1CCN(CCc2ccc3c(c2)CCO3)C1 [darifenacin hydrobromide] | 1.04 | 0.916 | 1 ± 0.018 | 1.05 ± 0.046 | – | – | – | – | –
13 | Cc1c(OCC(F)(F)F)ccnc1C[S@@+]([O-])c1nc2ccccc2[nH]1 [dexlansoprazole] | 0.925 | 0.837 | 1.01 ± 0.024 | 0.7 ± 0.091 | 0.981 | 0.887 | 0.833 | 0.643 | 0.625
14 | COc1ccc(-c2cc(=O)c3c(O)cc(O[C@@H]4O[C@H](CO[C@@H]5O[C@@H](C)[C@H](O)[C@@H](O)[C@H]5O)[C@@H](O)[C@H](O)[C@H]4O)cc3o2)cc1O [diosmin] | 1 | 0.962 | 1.09 ± 0.14 | 1.07 ± 0.059 | – | – | – | – | –
15 | CCN(CC)C(=S)SSC(=S)N(CC)CC [disulfiram] | 0.991 | 0.857 | 0.999 ± 0.012 | 0.76 ± 0.084 | 0.958 | 1 | 1 | 0.764 | 0.417
16 | Cn1c(=O)c2c(ncn2CC(O)CO)n(C)c1=O (stereo unspecified) [dyphylline] | 0.909 | 0.872 | 1.02 ± 0.046 | 1.02 ± 0.047 | – | – | – | – | –
17 | CN1CCC[C@@H]1Cc1c[nH]c2ccc(CCS(=O)(=O)c3ccccc3)cc12 [eletriptan hydrobromide] | 0.99 | 0.945 | 1.014 ± 0.0095 | 1 ± 0.026 | – | – | – | – | –

Row | SMILES | biofilm OD600 [1] | biofilm OD600 [2] | biofilm OD600 [3] | biofilm OD600 [4] | biofilm OD600 [5] | biofilm OD600 [6] | biofilm OD600 [7] | biofilm OD600 [8] | biofilm OD600 [9]
18 | CC[C@H]1OC(=O)[C@H](C)[C@@H](O[C@H]2C[C@@](C)(OC)[C@@H](O)[C@H](C)O2)[C@H](C)[C@@H](O[C@@H]2O[C@H](C)C[C@H](N(C)C)[C@H]2O)[C@](C)(O)C[C@@H](C)C(=O)[C@H](C)[C@@H](O)[C@]1(C)O [erythromycin] | 0.879 | 0.874 | 1.03 ± 0.026 | 1.03 ± 0.017 | – | – | – | – | –
19 | CCC(=O)Oc1ccc2c(c1)CC[C@@H]1[C@@H]2CC[C@]2(C)[C@@H](OC(=O)CC)CC[C@@H]12 [estradiol dipropionate] | 0.958 | 0.844 | 0.954 ± 0.037 | 0.987 ± 0.012 | – | – | – | – | –
20 | O=c1[nH]c(=O)n([C@H]2C[C@H](O)[C@@H](CO)O2)cc1F [floxuridine] | 1.02 | 0.967 | 0.969 ± 0.017 | 0.927 ± 0.025 | – | – | – | – | –
21 | Nc1nc(=O)[nH]cc1F [flucytosine] | 0.907 | 0.776 | 0.983 ± 0.06 | 0.798 ± 0.066 | 0.866 | 0.873 | 0.862 | 0.758 | 0.719
22 | CC1OC1P(=O)(O)O (stereo unspecified) [fosphomycin] | 0.972 | 1.04 | 1.01 ± 0.019 | 0.982 ± 0.011 | – | – | – | – | –
23 | N[C@@H](Cc1cc(I)c(Oc2ccc(O)c(I)c2)c(I)c1)C(=O)O [liothyronine sodium] | 1.14 | 1.15 | 0.989 ± 0.05 | 0.96 ± 0.021 | – | – | – | – | –
24 | Cc1cccc(Nc2ccccc2C(=O)O)c1C [mefenamic acid] | 0.973 | 0.93 | 0.875 ± 0.038 | 0.905 ± 0.011 | 1.02 | 1.01 | 0.958 | 0.875 | 0.714
25 | CCN(CC)C(=O)C1(c2ccccc2)CC1CN (stereo unspecified) [milnacipran hydrochloride] | 0.934 | 0.943 | 0.977 ± 0.026 | 0.962 ± 0.018 | – | – | – | – | –
26 | CCCCCCCCCCCCCCCCOP(=O)([O-])OCC[N+](C)(C)C [miltefosine] | 0.99 | 0.844 | 1.09 ± 0.035 | 0.222 ± 0.015 | 0.9 | 0.9 | 1.08 | 0.298 | 0.259
27 | O=C(O)c1cccnc1 [niacin] | 0.913 | 0.91 | 1.016 ± 0.002 | 0.967 ± 0.024 | – | – | – | – | –
28 | Cc1c(NC(=O)c2cccnc2)c(=O)n(-c2ccccc2)n1C [nifenazone] | 0.927 | 0.919 | 1.004 ± 0.0086 | 0.968 ± 0.065 | – | – | – | – | –
29 | COCCOC(=O)C1=C(C)NC(C)=C(C(=O)OC(C)C)C1c1cccc([N+](=O)[O-])c1 (stereo unspecified) [nimodipine] | 0.942 | 0.821 | 0.91 ± 0.029 | 0.984 ± 0.043 | 1.07 | 1.06 | 1.01 | 0.987 | 1.27
30 | COC(=O)C1=C(C)NC(C)=C(C(=O)OCC(C)C)C1c1ccccc1[N+](=O)[O-] (stereo unspecified) [nisoldipine] | 0.914 | 0.888 | 1.01 ± 0.051 | 0.65 ± 0.077 | 0.962 | 1.01 | 0.989 | 0.549 | 0.397
31 | O=C1CN(/N=C/c2ccc([N+](=O)[O-])o2)C(=O)N1 [nitrofurantoin] | 1.08 | 1.04 | 0.999 ± 0.035 | 0.999 ± 0.011 | – | – | – | – | –
32 | Cc1cc2c(s1)Nc1ccccc1N=C2N1CCN(C)CC1 [olanzapine] | 0.943 | 0.921 | 0.999 ± 0.027 | 0.974 ± 0.04 | – | – | – | – | –
33 | Fc1ccc([C@@H]2CCNC[C@H]2COc2ccc3c(c2)OCO3)cc1 [paroxetine hydrochloride] | 0.932 | 0.926 | 0.9497 ± 0.0011 | 0.509 ± 0.05 | 1.02 | 1.05 | 0.95 | 0.62 | 0.565
34 | NC(=O)NC(=O)Cc1ccccc1 [phenacemide] | 1.05 | 0.929 | 1.015 ± 0.0049 | 1.02 ± 0.065 | – | – | – | – | –

Source: the supplement of paper PMC7285287
